# Reference: patent US9037228B2, “Method and system for detecting electrophysiological changes in pre-cancerous and cancerous tissue” (Epi-Sci, LLC, priority 2002, dated 2015)
# Read-outs that look alike come from different tables or passages of the source.
# Key:
# [1] = test system: human prostatic epithelial cells; details: cells grown in presence of DHT
# Source text: FIG. 13 represent measurements of cell membrane potential (ψ) in human prostatic epithelial cells under different growth conditions. A Voltage-sensitive FRET (fluorescent energy transfer) probe was used for potentiometric ratio measurements. It has two fluorescent components: CC2-DMPE (Coumarin) and DISBAC2(3) (Oxonol). The oxonol distributes itself on opposite sides of the cell membrane in a Nernstian manner according to the ψ. The voltage sensitive distribution of oxonol is transduced through a ratiometric fluorescence signal via the coumarin which is bound to the outside surface of the cell membrane thereby amplifying the fluorescence. Measurements were made using a fluorescence microscope and a digital imaging system. The ratio measurements are calibrated using Gramicidin D to depolarize the cell membrane and then varying the external K^+-concentration. The calibrated cell membrane potential in mV is depicted on the y-axis.
# The filled bars indicates the ψ of exponentially growing prostatic epithelial cells before they reach confluence, whereas the open bars depict the ψ of the cells once they reach confluence and cell growth slows.
# [2] = test system: apical K+ channels of human colonic mucosa; details: normal colon, 30 mM mucosal TEA after elevated serosal K+, 0.1 mM amiloride present
# Protocol: The potassium permeability of the apical membrane of human colonic mucosa (P^Ka) was determined in surgical specimens of controls and grossly normal-appearing mucosa obtained 10-30 cm proximal to colorectal adenocarcinomas. The mucosa was mounted in Ussing chambers and the basolateral membrane resistance and voltage were nullified by elevating the K^+ in the serosal bathing solution. The apical sodium (Na^+) conductance was blocked with 0.1 mM amiloride. This protocol reduces the equivalent circuit model of the epithelium to an apical membrane conductance and electromotive force in parallel with the paracellular pathway as has been verified by microelectrode studies. […] The serosal bath was remained constant at 125 mM [K].
# colonic mucosa = experiment: TEP response of colonic mucosa to topically applied amiloride
# Source text: The measured TEP decreases in response to a topically applied amiloride (a sodium channel blocker) in normal colonic mucosa. This response is reduced by approximately 50% in pre-cancerous mucosa or by greater than 75% in cancerous mucosa. In addition, the loss in sodium conductance results in an increase of impedance of the surface epithelium. This ion transport alteration may be measured by determining the change in TEP as well as the basal impedance. In abnormal pre-cancerous or cancerous tissue, the TEP is lower, the response of the TEP to amiloride is less, and the increase in impedance (observed in normal colon in response to amiloride) is less in abnormal pre-cancerous or cancerous tissue. Similar pharmacological agents may be introduced that alter the effect of chloride or potassium ion transport, which affect abnormal pre-cancerous or cancerous tissue in a different manner than in normal colon tissue.
# [3] = test system: human breast epithelial cells; experiment: Cell membrane potential (ψ) in human breast epithelial cells, potentiometric fluorescent probe; format: cell-based
# Protocol: Measurements were made using a potentiometric fluorescent probe, and ratiometric measurements, which are calibrated using valinomycin and K^+-gradients. ψs were measured in the presence (closed circles) and absence (open circles) of estradiol (the active metabolite of estrogen). Each symbol is the mean measurement. The upper error bar is the standard error of the mean, and the lower error bar is the 95% confidence level for the observations. The addition of estrogen to cultured breast epithelial cells results in an instantaneous increase in ψ (data not shown) as well as transepithelial potential see FIG. 10. Transepithelial potential (VT) of an epithelium is the sum of the apical (luminal) cell membrane potential (VA) and the basolateral (abluminal) cell membrane potential (VBL). Therefore VT=VA+VBL(changes in VA and VBL will therefore alter VT or transepithelial potential). […] Malignant and transformed cells have a ψ of between −31 and −35 mV in the absence of estradiol and approximately […] when estradiol is present in the culture medium.
# [4] = test system: benign and malignant human breast epithelial cells; experiment: Transepithelial potential (TEP) of breast epithelial monolayers in modified Ussing chambers, voltage clamp; format: cell-based
# Protocol: It should be noted that the instantaneous response, illustrated in FIG. 10, is greater in malignant epithelia, whereas the chronic or sustained exposure to estradiol results in a lower increase in TEP (transepithelial electropotential) in malignant cells. Concurrent measurement of surface electropotential and impedance allow the more accurate diagnosis of cancer. […] The cells were grown as monolayers on Millipore filters and grew to confluence in 7 to 10 days. The epithelia were then mounted in modified Ussing chambers and the TEP was measured using a voltage clamp. Increasing doses of estradiol between 0 and 0.8 μM were added (x-axis). The transepithelial potential was measured after each addition and the TEP was measured (y-axis). The different dose response is apparent for benign and malignant epithelia. Malignant epithelia have a lower TEP but undergo an instantaneous increase in TEP of approximately 9 mV (becomes more electronegative and reaches a level of <6 mV) after exposure to only 0.1 μM estradiol and then depolarize to approximately −2 mV with increasing doses of estradiol up to about 0.5 μM.
# breast tissue = experiment: Electrophysiological (TEP) response of breast tissue to estradiol given into the duct or sublingually; format: in vivo; details: into the duct or sublingual 17-β-estradiol (4 mg)
# Protocol: In one method of present invention, estradiol is introduced directly into the duct or systematically following sublingual administration of 17-β-estradiol (4 mg). This agent produces a rapid response, which peaks at approximately 20 minutes. The electrophysiological response depends, in part, on the stage of the patient's menstrual cycle, as well as the condition of the breast tissue. Specifically, in normal breast tissue, a rise in TEP will occur during the follicular (or early) phase. In pre-cancerous or cancerous tissue, this response is abrogated.
# [5] = malignant epithelia, after exposure to 0.1 μM estradiol
structure (smiles),measurement,setting,value
"C[C@]12CCC(=O)C[C@@H]1CC[C@@H]1[C@@H]2CC[C@]2(C)[C@@H](O)CC[C@@H]12 [DHT, dihydroxytestosterone]",effect on cell membrane potential ψ,[1]; exponential growth,slightly hyperpolarized
same,effect on cell membrane potential ψ,[1]; on reaching confluence,depolarize
"CC[N+](CC)(CC)CC [TEA, tetraethyl ammonium]",effect on Isc,[2],abrupt increase in Isc
N=C(N)NC(=O)c1nc(Cl)c(N)nc1N [amiloride],reduction of the TEP response to amiloride,colonic mucosa; cancerous mucosa versus normal,greater than 75%
same,effect on measured TEP,"colonic mucosa; normal colonic mucosa, topically applied",decreases
same,reduction of the TEP response to amiloride,colonic mucosa; pre-cancerous mucosa versus normal,approximately 50%
"C[C@]12CC[C@@H]3c4ccc(O)cc4CC[C@H]3[C@@H]1CC[C@@H]2O [estradiol, 17-β-estradiol]",cell membrane potential ψ,"[3]; benign breast epithelial cells, estradiol added to the culture media (about −50 mV without)",~−70 mV
same,cell membrane potential ψ,"[3]; malignant and transformed cells, estradiol present in culture medium (−31 to −35 mV without)",approximately 50 mV
same,estradiol dose at which TEP response peaks,"[4]; benign epithelia, then remains persistently elevated",~0.3 µM
same,TEP level reached,[4]; [5],< 6 mV
same,instantaneous increase in TEP,[4]; [5],approximately 9 mV
same,TEP after depolarization,"[4]; malignant epithelia, increasing doses of estradiol up to about 0.5 μM",approximately −2 mV
same,time of peak electrophysiological response,breast tissue,approximately 20 minutes
